According to publication PMC9369442, “Synthetic Peucedanocoumarin IV Prevents α-Synuclein Neurotoxicity in an Animal Model of Parkinson’s Disease” (International Journal of Molecular Sciences, 2022):

How the values were obtained:
[1] = biological target: T1, recombinant α-synuclein (Homo sapiens, UniProt P37840); assay: In vitro recombinant α-synuclein aggregation, Western blot; assay type: biochemical; details: 100 μM, 37 °C, 3 or 5 days
T1 construct: made in house; host or cells: Escherichia coli BL21
Method: Figure 2 PCiv prevents α-synuclein aggregation in vitro and in cultured neurons with PFF treatment. (A) Representative Western blots showing the degree of recombinant α-synuclein (αSyn) aggregation in a test tube in the presence or absence of PCiv (100 μM) at the indicated incubation duration (phosphate-buffered saline [PBS], 37 °C for 3 or 5 days). Aggregation of α-synuclein was determined using α-synuclein antibody. (B) Quantification of the relative amount of α-synuclein aggregate in high molecular weight sizes in panel A (n = 3 per group). […] (D) Quantification of pS129-αSyn immunofluorescence signal intensities in MAP2-positive cortical neurons in each experimental group (n = 15 cells from three separate experiments). (E) Cell viability assessment in the indicated experimental groups was monitored by CCK-8 assay (n = 3 per group). The data are expressed as means ± SEMs. * p < 0.05, ** p < 0.01, *** p < 0.001, and **** p < 0.0001, ANOVA test followed by Tukey’s post hoc analysis. […]
(A) Representative Western blots showing the degree of recombinant α-synuclein (αSyn) aggregation in a test tube in the presence or absence of t-Khellatone, PCiii, and PCiv (100 μM) at 0 and 5 days of incubation (phosphate-buffered saline [PBS], 37 °C for 5 days). Aggregation of α-synuclein was determined using α- synuclein antibody. […]

[2] = tested on: SH-SY5Y cells with Tet-Off conditional expression of β23; assay: Trypan blue exclusion cell viability assay, Tet-Off β23 expression; assay type: cell-based; details: 1 μM, 24 h
Method: Figure 1 Peucedanocoumarin IV (PCiv) inhibits β23 aggregations and cytotoxicity in SH-SY5Y cells. (A) Scheme showing the detailed experimental steps in the organic synthesis of racemic PCiv and racemic PCiii (rac-PCiii, and rac-PCiv). Both PCiii and PCiv used in this study are racemic forms. (B) Trypan blue exclusion cell viability assessment in SH-SY5Y cells with Tet-Off-induced β23 expressions. β23 was expressed for 24 h using the Tet-off system. Further expression of β23 was halted by doxycycline (Dox) treatment with simultaneous treatment of the PCiii, PCiv, or their synthetic intermediate, trans-khellatone (t-khellatone, 1 μM 24 h). Cell viability was assessed 24 h after doxycycline treatment (n = 5 per group). (C) Synthetic PCiv’s protective effect on Tet-Off-expressed β23 toxicity in SH-SY5Y cells compared with peucedanocoumarin III (PCiii) determined by trypan blue exclusion assay. (D) The degradation of β23 monitored by Western blot at 37 h after doxycycline (200 ng/mL) treatment. The representative Western blot image of HA (β23) in SH-SY5Y cells treated with synthetic PCiii, synthetic PCiv (1 μM, 37 h), or DMSO as a vehicle. (E) Quantification of HA (β23) expression in SH-SY5Y cells from the indicated experimental groups in panel D (n = 3 experiments per group). (F) Representative immunofluorescence of steady state HA (β23) expression in SH-SY5Y cells expressing Tet-Off regulatable reporter mCherry and HA-tagged β23. HA-β23 was expressed for 24 h using the Tet-off system. Further expression of β23 was halted by Dox treatment in the presence of PCiii or PCiv (1 μM, 37 h). (G) Quantification of HA (β23) immunofluorescence signal in mCherry positive SH-SY5Y cells in each experimental group (n = 32 cells from three separate experiments per group). The data are expressed as means ± SEMs. * p < 0.05, ** p < 0.01, *** p < 0.001, and **** p < 0.0001, ANOVA test followed by Tukey’s post hoc analysis. Two-way ANOVA was used in panel C.
Human neuroblastoma SH-SY5Y cells (ATCC, Manassas, VA, USA) were grown in complete media containing DMEMs, 10% fetal bovine serum (vol/vol), and antibiotics (penicillin-streptomycin 100 U/mL, Thermo Fisher Scientific, Waltham, MA, USA). The atmospheric condition used to preserve the cells consisted of 5% CO2/95% air at 37 °C and maintained a humidified environment. X-tremeGENE HP transfection reagents (Roche, Basel, Switzerland) were used for transient transfection of DNA constructs (pCMV-tTA, TetP-β23, and pTet-dual2 [5]) following the manufacturer’s instructions.
SH-SY5Y cells were plated in 12-well plates at a density of 0.2 × 10^6 cells per well. Following transient transfection with the indicated constructs and subsequent treatment protocol, the cells were harvested by trypsinization, thereby yielding single-cell suspensions. The cells were washed twice with phosphate-buffered saline (PBS) and resuspended in serum-free DMEM. The resuspended cells were mixed with an equal volume of 0.4% trypan blue (w/v) and incubated for 2 min at room temperature. Live and dead cells were counted using a Countess II Automated Cell Counter (Life Technologies, Carlsbad, CA, USA) for assessing cell viability.

## CC1(C)Oc2ccc3ccc(=O)oc3c2C(O)C1O (stereo not drawn) [trans-khellatone, reference compound]
[1]
  aggregation of recombinant α-synuclein into high molecular weight species: failed to prevent
[2]
  effect on β23-induced cytotoxicity: no effect
